This passage reports inhibition results from patent publication US10940139B2, “Compounds that interact with the Ras superfamily for the treatment of cancers, inflammatory diseases, rasopathies, and fibrotic disease” (Shy Therapeutics LLC, priority 2017, dated 2021).

One assay concerns the target KRas G12D mutant protein (Homo sapiens (Human), UniProt P01116, G12D). The assay can be described thus: Ras GTP binding domain inhibition assay (labeled GTP). To be noted: at 20 μM; read-out: KRas G12D % Inh. The protocol:
The following method was developed as specific assay for KRas G12D mutant protein.
Buffer-I: • 50 mM Tris, pH 7.5 • 150 mM NaCl (optional) • 1 mM MgCl2 • 1 mM DTT. • KRas G12D mutant protein was expressed as a His-tagged protein. Purified His-KRas G12D protein was diluted in buffer-I to a final concentration of 3-10 μg/ml. • 200 μl of the diluted His-KRas G12D protein was added to a nickel coated 96 well plate and incubated overnight at 4° C. • The next day, wells were washed 3× in 200 μl of Buffer-I. • Then 200 μl of Buffer-I were added to each well in the presence of 1% DMSO. • Tested compounds were added to the protein-coated wells at a concentration of 20 μM, and incubated for 3 hours at room temperature. While performing IC50 measurements a serial dilution of all tested concentrations was prepared.
Then 22 μl of Cy3-GTP or Cy5-GTP was added to each well. The labeled GTP was incubated for 45 min. at room temperature. • Following GTP incubation, wells were washed 3× in Buffer-I, and 200 μl of Buffer-I were added to each well. • Following washes, the amount of bound labeled-GTP was measured with an Eppendorf AF2200 plate reader.

The target in a further assay is Rac-1 (Homo sapiens (Human), UniProt P63000). Description: Rac inhibition assay (labeled GTP). The assay is classed as binding. To be noted: read-out: Rac-1 % Inh.
The target in the next assay is Rho-A (Homo sapiens (Human), UniProt P61586). The assay can be described thus: Rho inhibition assay (labeled GTP). It counts as binding. The following applies: read-out: Rho-A % Inh.
Chain of Rho-A (P61586 whole entry): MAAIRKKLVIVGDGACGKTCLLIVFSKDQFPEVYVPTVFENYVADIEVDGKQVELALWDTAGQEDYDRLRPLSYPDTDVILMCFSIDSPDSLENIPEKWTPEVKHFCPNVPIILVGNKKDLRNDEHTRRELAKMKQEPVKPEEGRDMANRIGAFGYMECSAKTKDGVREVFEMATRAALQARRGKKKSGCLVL

Chain of KRas G12D mutant protein (P01116-2 other isoform, or with tags, fused parts or gaps G12D): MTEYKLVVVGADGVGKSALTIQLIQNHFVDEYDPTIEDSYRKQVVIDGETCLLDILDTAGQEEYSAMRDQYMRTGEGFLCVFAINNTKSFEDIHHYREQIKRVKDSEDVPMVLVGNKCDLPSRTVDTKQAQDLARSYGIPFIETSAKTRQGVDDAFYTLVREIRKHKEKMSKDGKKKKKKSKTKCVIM

Take `COCCNc1nc(-c2nccn2C)nc2sc(-c3ccccc3)c(-c3ccccc3Cl)c12` [drawing 3898]: the inhibition at 20 µM at KRas G12D mutant protein, on Rac-1 and at Rho-A was 25 to 50% each time.
`COCCNc1nc(-c2ccccn2)nc2sc(-c3ccccc3)c(-c3ccccn3)c12` [drawing 3938]: the inhibition at 20 µM on KRas G12D mutant protein lay in the range of 1 to 25%; at Rac-1, 1 to 25%; on Rho-A it was 25 to 50%.
`Cc1sc2c(O)nc(-c3nccn3C)nc2c1-c1cccc(C(F)(F)F)c1` [drawing 3917]: the inhibition at 20 µM at KRas G12D mutant protein is 1 to 25%; on Rac-1 it was 25 to 50%; on Rho-A it was 0%.
The like results for `Cn1ccnc1-c1nc(NCCOC2CC2)c2c(-c3ccccc3)c(-c3ccccc3)sc2n1` [drawing 3894] were, in that order, 1 to 25%, 25 to 50% and 1 to 25%.
The like results for `COC(C)(C)c1ccc(-c2csc3c(O)nc(-c4nccn4C)nc23)cc1` [drawing 3936] were, in that order, 25 to 50%, 25 to 50% and 51 to 75%.
Consider `Cn1ccnc1-c1nc(O)c2scc(-c3cccc(C(F)(F)F)c3)c2n1` [drawing 3916], for which the inhibition at 20 µM at KRas G12D mutant protein lay within 25 to 50%; at Rac-1, 51 to 75%; on Rho-A, 25 to 50%.
Regarding `Cc1sc2c(O)nc(-c3nccn3C)nc2c1-c1ccc(F)cc1F` [drawing 3939], the inhibition at 20 µM at KRas G12D mutant protein, on Rac-1 and on Rho-A was 1 to 25% in each case.
In the case of `COCCN(C)c1nc(-c2nccn2C)nc2sc(-c3ccccc3)c(-c3ccccc3)c12` [drawing 3884], the inhibition at 20 µM is 51 to 75% at KRas G12D mutant protein, 25 to 50% at Rac-1 and 25 to 50% on Rho-A.
As to `Cc1sc2c(O)nc(-c3nccn3C)nc2c1-c1ccccc1` [drawing 3912], the values for the inhibition at 20 µM at KRas G12D mutant protein, on Rac-1 and at Rho-A were 25 to 50%, 25 to 50% and 51 to 75%, respectively.
In the case of `COCCNc1nc(-c2nccn2C)nc2sc(-c3ccccc3)c(-c3ccc(OC)cc3)c12` [drawing 3907], the figures for the inhibition at 20 µM on KRas G12D mutant protein, at Rac-1 and at Rho-A were 25 to 50%, 51 to 75% and 51 to 75%, respectively.
For the compound `Cc1sc2c(O)nc(-c3nccn3C)nc2c1-c1ccccc1Cl` [drawing 3920], the inhibition at 20 µM on KRas G12D mutant protein was 25 to 50%; at Rac-1, 51 to 75%; at Rho-A, 51 to 75%.
With `Oc1nc(-c2ncccn2)nc2c(-c3cccc(C(F)(F)F)c3)csc12` [drawing 3926], the inhibition at 20 µM on KRas G12D mutant protein is 25 to 50%; on Rac-1, 51 to 75%; at Rho-A, 51 to 75%.
Turning to `COCCCNc1nc(-c2nccn2C)nc2sc(-c3ccccc3)c(-c3ccccc3)c12` [drawing 3888], the inhibition at 20 µM on KRas G12D mutant protein fell in the range of 51 to 75%; at Rac-1, 25 to 50%; at Rho-A it was 51 to 75%.
For the compound `Cn1ccnc1-c1nc(O)c2sc(-c3ccccc3)c(-c3ccccc3)c2n1` [drawing 3906], the inhibition at 20 µM was 0% on KRas G12D mutant protein, 0% at Rac-1 and 1 to 25% at Rho-A.
For the compound `Cn1ccnc1-c1nc(O)c2sc(-c3ccccc3)c(-c3cccc(C(F)(F)F)c3)c2n1` [drawing 3910], the inhibition at 20 µM at KRas G12D mutant protein was 0%; at Rac-1, 1 to 25%; at Rho-A, 0%.
In the case of `COCCNc1nc(-c2ccncn2)nc2sc(-c3ccccc3)c(-c3ccccc3)c12` [drawing 3892], the inhibition at 20 µM is 0% on KRas G12D mutant protein, 1 to 25% on Rac-1 and 1 to 25% on Rho-A.
`CCOCCOc1nc(-c2nccn2C)nc2sc(-c3ccccc3)c(-c3ccccc3)c12` [drawing 3890]: the inhibition at 20 µM is 1 to 25% on KRas G12D mutant protein, 1 to 25% on Rac-1 and 25 to 50% at Rho-A.
For the compound `Cn1ccnc1-c1nc(O)c2scc(-c3ccccc3Cl)c2n1` [drawing 3933], the inhibition at 20 µM on KRas G12D mutant protein was 25 to 50%; at Rac-1, 51 to 75%; on Rho-A it was 51 to 75%.
As to `Cn1ccnc1-c1nc(O)c2scc(-c3cccc(OC(F)(F)F)c3)c2n1` [drawing 3921], the inhibition at 20 µM lay within 51 to 75% on KRas G12D mutant protein, 51 to 75% on Rac-1 and 25 to 50% at Rho-A.
Consider `Cn1ccnc1-c1nc(O)c2scc(-c3cccc(Cl)c3)c2n1` [drawing 3935], for which the inhibition at 20 µM at KRas G12D mutant protein was 25 to 50%; at Rac-1 it was 51 to 75%; at Rho-A it was 51 to 75%.
Consider `Cn1ccnc1-c1nc(O)c2scc(-c3ccc(C(C)(C)C)cc3)c2n1` [drawing 3937], for which the results for the inhibition at 20 µM on KRas G12D mutant protein, on Rac-1 and at Rho-A were 1 to 25%, 25 to 50% and 25 to 50%, respectively.
For the compound `Cn1ccnc1-c1nc(O)c2scc(-c3ccccc3)c2n1` [drawing 3932], the inhibition at 20 µM on KRas G12D mutant protein fell in the range of 51 to 75%; on Rac-1 it was 51 to 75%; at Rho-A it was 25 to 50%.
As for `COc1ccc(-c2csc3c(O)nc(-c4nccn4C)nc23)cn1` [drawing 3931], the inhibition at 20 µM at KRas G12D mutant protein, on Rac-1 and on Rho-A was 51 to 75% in each case.
For the compound `COCCNc1nc(-c2nccn2C)nc2sc(C)c(-c3ccccc3)c12` [drawing 3902], the inhibition at 20 µM on KRas G12D mutant protein, at Rac-1 and on Rho-A was 51 to 75% in each case.
Regarding `COCCNc1nc(-c2cn(C)cn2)nc2sc(C)c(-c3ccccc3)c12` [drawing 3903], the inhibition at 20 µM was 25 to 50% at KRas G12D mutant protein, 51 to 75% on Rac-1 and 51 to 75% on Rho-A.
As for `Cn1ccnc1-c1nc(O)c2sc(-c3ccccc3)c(-c3ccccc3Cl)c2n1` [drawing 3913], the inhibition at 20 µM at KRas G12D mutant protein, at Rac-1 and on Rho-A was 51 to 75% each time.
`Oc1nc(-c2ccncn2)nc2c(-c3cccc(C(F)(F)F)c3)csc12` [drawing 3925]: the inhibition at 20 µM at KRas G12D mutant protein, at Rac-1 and on Rho-A was 1 to 25% throughout.
As for `CC(C)OCCNc1nc(-c2nccn2C)nc2sc(-c3ccccc3)c(-c3ccccc3)c12` [drawing 3885], the inhibition at 20 µM on KRas G12D mutant protein lay in the range of 51 to 75%; on Rac-1, 25 to 50%; on Rho-A it was 25 to 50%.
Turning to `COCCNc1nc(-c2nccn2C)nc2sc(-c3ccc(OC)cc3)c(-c3ccccc3)c12` [drawing 3915], the inhibition at 20 µM was 25 to 50% on KRas G12D mutant protein, 25 to 50% at Rac-1 and 1 to 25% on Rho-A.
In the case of `COCCNc1nc(-c2nccn2C)nc2sc(C3CCOCC3)c(-c3ccccc3)c12` [drawing 3908], the inhibition at 20 µM fell in the range of 51 to 75% at KRas G12D mutant protein, 76 to 100% on Rac-1 and 51 to 75% at Rho-A.
Take `COCCNc1nc(-c2nccn2C)nc2sc(-c3ccncc3)c(-c3ccccc3)c12` [drawing 3900]: the inhibition at 20 µM on KRas G12D mutant protein, at Rac-1 and at Rho-A was 51 to 75% in each case.
For the compound `CC(C)COc1ccc(-c2c(-c3ccccc3)sc3c(O)nc(-c4nccn4C)nc23)cn1` [drawing 3905], the inhibition at 20 µM at KRas G12D mutant protein, at Rac-1 and at Rho-A was 51 to 75% each time.
`COCCNc1nc(-c2nccn2C)nc2sc(-c3cccc(OC)c3)c(-c3ccccc3)c12` [drawing 3904]: the inhibition at 20 µM was in the range of 25 to 50% at KRas G12D mutant protein, 1 to 25% on Rac-1 and 51 to 75% on Rho-A.
The like results for `CC(C)Oc1ccc(-c2csc3c(O)nc(-c4nccn4C)nc23)cc1F` [drawing 3927] were, in that order, 25 to 50%, 51 to 75% and 25 to 50%.
`COc1nc(-c2ccccn2)nc(Oc2cccc(C(F)(F)F)c2)c1O` [drawing 3883]: the inhibition at 20 µM lay within 51 to 75% on KRas G12D mutant protein, 76 to 100% at Rac-1 and 1 to 25% on Rho-A.
Consider `COCCNc1nc(-c2cccc(N)n2)nc2sc(-c3ccccc3)c(-c3ccccc3)c12` [drawing 3909], for which the inhibition at 20 µM on KRas G12D mutant protein, on Rac-1 and on Rho-A was 0% in each case.
Turning to `Cn1cnc(-c2nc(O)c3scc(-c4cccc(C(F)(F)F)c4)c3n2)c1` [drawing 3922], the inhibition at 20 µM on KRas G12D mutant protein, at Rac-1 and on Rho-A was 25 to 50% throughout.
In the case of `Cc1sc2c(O)nc(-c3nccn3C)nc2c1-c1ccc(OCC(C)C)nc1` [drawing 3918], the inhibition at 20 µM on KRas G12D mutant protein was 1 to 25%; at Rac-1 it was 25 to 50%; on Rho-A, 1 to 25%.
Consider `COCCNc1nc(-c2nccn2C)nc2sc(-c3ccccc3Cl)c(-c3ccccc3)c12` [drawing 3899], for which the figures for the inhibition at 20 µM at KRas G12D mutant protein, at Rac-1 and on Rho-A were 1 to 25%, 0% and 25 to 50%, respectively.
Taken in the same sequence, the figures for `Cn1ccnc1-c1nc(NCCCO)c2c(-c3ccccc3)c(-c3ccccc3)sc2n1` [drawing 3897] were 51 to 75%, 51 to 75% and 51 to 75%.
